Consider two molecules from patent US20250000874A1, “BACTERIAL METABOLITES AND THEIR USE IN REDUCING INFLAMMATION” (LOYOLA UNIVERSITY OF CHICAGO, priority 2023, published 2025).

One assay deals with dry eye disease model. Briefly: Murine experimental dry eye (DED) model, ICES. The assay is classed as in vivo, mouse. The source says: FIG. 12. Corneal Florescein Staining with JE-treated Experimental Dry Eye. Mean corneal staining score with JE/control topical treatment (4 times/day) starting 3 weeks after housing in ICES. Group 1: Normal control (non DED); group 2: Dry Eye treated with JE (JE+DED); Group 3: Dry Eye treated with vehicle (control DED). P value: *: <0.05. One of two experiments is shown.
FIG. 25. Pro-Inflammatory IL-6 Cytokine Expression in Corneal Tissues Isolated from Control, Vehicle Control, and Treatment Groups. Corneal samples from the three groups were isolated, stabilized in RNA later, and stored at-80. Corneal samples were homogenized, and RNA was purified using RNAeasy mini-kit. A total of 0.5 μg-1 μg RNA was yielded. RT-qPCR was performed. Values were normalized to GAPDH control, and fold induction was measured as 2-ΔΔCT. One of two experiments is shown.
We further tested if JE reduced corneal tissue damage in a murine DED model. Thus, normal C57BL/6J mice were maintained in relative humidity 60% to 80%, no airflow at 21-23° C. as normal control (Group 1). The experimental dry eye was induced by using an Intelligently Controlled Environmental System (ICES). Dry eye mice (Group 2 and Group 3) were housed in ICES with relative humidity at 13+4%, airflow of 2.2+0.2 m/s, and temperature of 21-23° for 3 weeks. Group 2 mice were treated with 10 μL JE at 50 μM 0.35% (v/v) DMSO in PBS and group 3 (vehicle control) were treated with 10 μL of 0.35% (v/v) DMSO in PBS, 4 time/day topically for 14 days. Corneal fluorescein staining was evaluated at week 0, 3 and 5. The stained area was assessed according to a standardized grading system ranging from 0 to 4, with the corneal surface divided into five regions. Then the total scores from the five regions were analyzed. […] The data strongly support that JE (3,3-Difluoro-5-alpha-androstan-17-beta-yl acetate) can be used as therapeutic agent for non-infectious inflammatory diseases. […]
This pattern of staining points to significant corneal damage and inflammation. […] Next, the IL-6 cytokine expression was measured in corneal samples using RT-qPCR. […]

In the next assay the test system is THP-1 cells. Briefly: NC on TNFα production by THP-1s in response to TLR agonists (Example 7). The assay is classed as cell-based, human. As for the experimental part:
FIG. 32. NC Reduces TNFα Response to Toll 3 Agonist. Macrophages were cultured at a uniform density and allowed to adhere (in the case of BMDMs) or differentiate with PMA (in the case of THP-1s). macrophages were then incubated overnight in NC at a concentration of 50 uM at 37° C. The following day, the BMDMs were stimulated with P(I:C) at 50 ug/mL, 100 ug/mL, or 200 ug/mL for four hours and the THP-1s were stimulated at 200 […]. Supernatants were collected and TNFα concentrations were determined via ELISA.
FIG. 34. TNFα production from THP-1 stimulation. Thp-1s plated at uniform density and incubated in PMA to differentiate and treated with NC overnight. The following day, cells were then treated with FSL at a concentration of 20 ng/ml and 50 ng/ml. After 4 hours, supernatant was collected and the concentration of TNFα was determined via ELISA.
Bone marrow derived macrophages were collected from adult mice (6-8 weeks old). Femurs were obtained and cut with scissors. The connecting muscles were removed and the bones were flushed with PBS. PBS was collected and cells were counted and adjusted to the desired concentrations. Cells were then plated in DMEM supplemented with Macrophage Colony Stimulating Factor (M-CSF) at 10 ng/ml. […] After 7 days the cells were ready for use. […]
Once ready, macrophages were then incubated with NC at a concentration of 50 uM overnight. […] Samples were treated for 4 hours and then Supernatant was then collected and the concentration of TNFα was then determined via the commercially available ELISA MAX Deluxe kit (Biolegend), with measurements reported in pg/mL.
To investigate the effects NC, macrophages were stimulated in vitro with various TLR agonists, and the production of cytokines was measured via ELISA. […] After 4 hours, supernatant was collected and the concentration of TNFα was determined via ELISA.
Further investigation of NC's impact on TLR signaling involved treating BMDMs with the TLR 4 agonist LPS. […] After 4 hours supernatant was collected and concentration of TNFα was measured via ELISA. […]

“Also recorded” adds a separate entry of the source.

For `CC(=O)O[C@@H]1CC[C@H]2[C@H]3CC[C@H]4CC(F)(F)CC[C@]4(C)[C@H]3CC[C@]12C` [JE, 3,3-Difluoro-5-alpha-androstan-17-beta-yl acetate], the “corneal fluorescein staining score” value in the assay on dry eye disease model (10 μL JE 50 μM topically 4 times/day for 14 days after 3 weeks in ICES, vs vehicle control, day 35) was “significantly reduced”. Further, the “IL-6 expression in corneal samples (RT-qPCR)” value in the assay on dry eye disease model (JE eye drops four times a day for 14 days) was “decreased; also recorded: did not return to the baseline”. The “surface area of corneal damage” value in the assay with dry eye disease model (JE eye drops four times a day for 14 days, relative to vehicle control) is reported as “decrease”.
On to `CCCCCCCCCCCCCCCC(=O)N[C@@H](C(=O)O)[C@H](C)O` [NC, N-Palmitoyl-D-Threonine], for which the “production and secretion of TNFα” value in the assay on THP-1 cells (NC 50 μM overnight, Poly (I:C) 200 mg/ml or 400 mg/mL, 4 hours) is “reduced”. In addition, in the assay with THP-1 cells (NC alone, 50 μM overnight), the “production of TNFα” value was “not found to increase”. Besides, the “TNFα production in response to TLR 2/6 agonist FSL-1” value in the assay on THP-1 cells (NC overnight, FSL 20 ng/ml and 50 ng/ml, 4 hours) is given as “exhibited inhibitory effects”.
